According to patent US20130210099A1, “METHOD FOR THE PRODUCTION OF ERYTHRITOL” (ANNIKKI GMBH, priority 2010, published 2013):

Tests used:
[1] = biological target: T1, GST::err1 fusion proteins (Trichoderma reesei, UniProt Q0GYU5); assay: HPLC analysis of the enzymatic conversion of erythrose; type: biochemical; settings: 4 mM NADPH, 5 mM erythrose, 25° C. or 37° C., 2 h
T1 construct: made in house; host or cells: E. coli BL21 (DE3) pLysS
Method: The following 1 mL assays have been performed prior to HPLC analysis: Assay 1 comprised 4 mM NADPH (in 10 mM sodium phosphate buffer, pH 7), 25 μL purified GST::err1 enzyme, 5 mM erythrose and was incubated at 25° C. for 2 hours. Assay 2 was performed according to assay 1, but was incubated at 37° C. for 2 h. Both assays were stopped by incubating at 85° C. for 10 min and afterwards were filtered using 0.2 μm filters. As negative control assay 3 was performed like assay 1, but was immediately stopped by incubation at 85° C. for 10 min and assay 4 was performed according to assay 1, but sodium phosphate buffer instead of erythrose was used and it was immediately stopped at 85° C. for 10 min.
Analyses were performed using a Thermo Finnigan Surveyor HPLC instrument (Thermo Fisher Scientific, MA, US). All 10 μL samples were injected onto a Rezex RHM-Monosaccharide column (H+, 8%, 150×7.8 mm; Phenomenex, CA, US). Water was used as the mobile phase and elution was followed at 85° C., applying a flow rate of 0.3 mL/min for 20 min. 1 mM D-Erythrose (Sigma) and erythritol (Sigma) were used as reference substances.

Err1 = biological target: T2, Err1 (Trichoderma reesei, UniProt Q0GYU5); assay: Determination of Vmax and Km according to Liepins et al. (2006)
T2 sequence (Q0GYU5 1-331): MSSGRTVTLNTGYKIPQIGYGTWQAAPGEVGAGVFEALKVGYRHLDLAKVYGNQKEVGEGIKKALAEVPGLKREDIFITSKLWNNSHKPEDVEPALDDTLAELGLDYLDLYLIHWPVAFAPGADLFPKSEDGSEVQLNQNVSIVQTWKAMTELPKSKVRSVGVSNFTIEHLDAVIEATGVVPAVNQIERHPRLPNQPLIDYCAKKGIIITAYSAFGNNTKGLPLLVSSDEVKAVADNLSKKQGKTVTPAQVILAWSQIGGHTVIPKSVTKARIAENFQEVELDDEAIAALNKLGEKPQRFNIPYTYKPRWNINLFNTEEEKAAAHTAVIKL

[2] = biological target: T1, GST::err1 fusion proteins; assay: Enzyme assay measuring NADPH-decrease with different substrates; type: biochemical; settings: NADPH decrease at 340 nm; 400 μM NADPH, 10 mM substrate, 30° C., pH 7
Method: The following 1 mL assay was performed: 400 μM NADPH (in 10 mM sodium phosphate buffer, pH 7), and 25 μL purified GST::err1 enzyme were mixed in an lmL quartz cuvette and incubated at 30° C. for 1 min. Then adding D-erythrose to a final concentration of 10 mM started the reaction. The decrease of NADPH concentration was measured in a spectrophotometer at 340 nm. As a control, a blank was performed using water instead of D-erythrose.

[3] = substrate: O=C[C@H](O)CO; assay: purified protein, by the assay type; settings: other: substrate of Err1
[4] = substrate: O=CC=O; assay: purified protein, by the assay type; settings: other: substrate of Err1

Molecule: O=C[C@H](O)[C@H](O)CO [Erythrose, D-erythrose]
- enzymatic conversion of erythrose (HPLC) [1]: reduced to erythritol
- activity compared with the other substrates (Err1; higher activity versus substrates with good activity for GLD1): approximately 10 fold
- Km (Err1; substrate of Err1): 16 µM
- Vmax (Err1; substrate of Err1): 530 nkat/mg
- Absorbance decrease [2]: −83.77 mAbs/min

Molecule: O=CC=O [Glyoxal, glyoxal, reference compound]
- Absorbance decrease [2]: −83.28 mAbs/min

B1: Err1 (Trichoderma reesei) (protein)
chain: T2 sequence (Q0GYU5 1-331)
- Km [3]: 900 µM
- Vmax [3]: 9 µmol/min/mg
- Km [4]: 2400 µM
- Vmax [4]: 22.5 µmol/min/mg
